Tests used:
K562 [1] = experiment: Selectivity ratio of IC50 for integrin alphavbeta8 (unknown origin)-mediated K562 cell adhesion to LAPb1 coated surface to IC50 for integrin alphavbeta5 (unknown origin)-mediated K562 cell adhesion to vitronectin coated surface; assay type: cell-based; details: Homo sapiens
Integrin alpha-V/beta-8 = Integrin alpha-V/beta-8 (Homo sapiens, UniProt P06756+P26012); experiment: Inhibition of integrin alphavbeta8 (unknown origin)-mediated K562 cell adhesion to LAPb1 coated surface by fluorescence analysis; assay type: cell-based
K562 [2] = experiment: Selectivity ratio of IC50 for integrin alphavbeta8 (unknown origin)-mediated K562 cell adhesion to LAPb1 coated surface to IC50 for integrin alphavbeta3 (unknown origin)-mediated K562 cell adhesion to LAPb1 coated surface; assay type: cell-based; details: Homo sapiens
Integrin alpha-V/beta-6 [3] = target: T1, Integrin alpha-V/beta-6 (Homo sapiens, UniProt P06756+P18564); experiment: Inhibition of integrin alphavbeta6 (unknown origin)-mediated K562 cell adhesion to LAPb1 coated surface by fluorescence analysis; assay type: cell-based
K562 [4] = experiment: Selectivity ratio of IC50 for integrin alphavbeta6 (unknown origin)-mediated K562 cell adhesion to LAPb1 coated surface to IC50 for integrin alphavbeta5 (unknown origin)-mediated K562 cell adhesion to vitronectin coated surface; assay type: cell-based; details: Homo sapiens
Integrin alpha-V/beta-3 [5] = target: T2, Integrin alpha-V/beta-3 (Homo sapiens, UniProt P05106+P06756); experiment: Inhibition of integrin alphavbeta3 (unknown origin)-mediated K562 cell adhesion to LAPb1 coated surface by fluorescence analysis; assay type: cell-based
K562 [6] = experiment: Selectivity ratio of IC50 for integrin alphavbeta6 (unknown origin)-mediated K562 cell adhesion to LAPb1 coated surface to IC50 for integrin alphavbeta3 (unknown origin)-mediated K562 cell adhesion to LAPb1 coated surface; assay type: cell-based; details: Homo sapiens
Integrin alpha-V/beta-5 = Integrin alpha-V/beta-5 (Homo sapiens, UniProt P06756+P18084); experiment: Inhibition of integrin alphavbeta5 (unknown origin)-mediated K562 cell adhesion to vitronectin coated surface by fluorescence analysis; assay type: cell-based
[7] = Lipophilicity, log D of the compound by HPLC chromatographic method; assay type: physicochemical
Integrin alpha-V/beta-3 [8] = target: T2, Integrin alpha-V/beta-3; experiment: Inhibition of integrin alphavbeta3 (unknown origin) by Merck binding assay; assay type: protein-complex assay
Integrin alpha-V/beta-6 [9] = target: T1, Integrin alpha-V/beta-6; experiment: Inhibition of integrin alphavbeta6 (unknown origin) by Merck AG cell assay; assay type: cell-based

T2 sequence (P05106 27-788 limits assumed): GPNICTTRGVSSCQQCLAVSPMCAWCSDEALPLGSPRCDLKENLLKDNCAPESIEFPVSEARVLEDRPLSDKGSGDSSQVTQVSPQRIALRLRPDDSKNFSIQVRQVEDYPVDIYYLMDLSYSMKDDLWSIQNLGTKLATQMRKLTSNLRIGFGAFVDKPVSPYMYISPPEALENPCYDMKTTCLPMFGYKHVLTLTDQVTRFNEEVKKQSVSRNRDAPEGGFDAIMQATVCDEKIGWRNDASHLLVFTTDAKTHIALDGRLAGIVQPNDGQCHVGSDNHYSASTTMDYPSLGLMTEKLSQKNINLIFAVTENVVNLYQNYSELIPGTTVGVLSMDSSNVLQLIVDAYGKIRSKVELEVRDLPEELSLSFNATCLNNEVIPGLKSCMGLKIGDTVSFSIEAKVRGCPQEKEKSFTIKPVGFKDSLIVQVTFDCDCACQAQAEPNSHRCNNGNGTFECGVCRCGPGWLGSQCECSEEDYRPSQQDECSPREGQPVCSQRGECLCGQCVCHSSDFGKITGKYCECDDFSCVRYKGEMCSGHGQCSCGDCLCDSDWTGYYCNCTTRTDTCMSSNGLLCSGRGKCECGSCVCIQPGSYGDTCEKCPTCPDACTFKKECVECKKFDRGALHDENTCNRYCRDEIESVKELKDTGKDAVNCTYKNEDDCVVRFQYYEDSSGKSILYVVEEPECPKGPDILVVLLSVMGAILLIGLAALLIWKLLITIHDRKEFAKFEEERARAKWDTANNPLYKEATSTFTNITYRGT
T2 sequence (P06756 31-889 limits assumed): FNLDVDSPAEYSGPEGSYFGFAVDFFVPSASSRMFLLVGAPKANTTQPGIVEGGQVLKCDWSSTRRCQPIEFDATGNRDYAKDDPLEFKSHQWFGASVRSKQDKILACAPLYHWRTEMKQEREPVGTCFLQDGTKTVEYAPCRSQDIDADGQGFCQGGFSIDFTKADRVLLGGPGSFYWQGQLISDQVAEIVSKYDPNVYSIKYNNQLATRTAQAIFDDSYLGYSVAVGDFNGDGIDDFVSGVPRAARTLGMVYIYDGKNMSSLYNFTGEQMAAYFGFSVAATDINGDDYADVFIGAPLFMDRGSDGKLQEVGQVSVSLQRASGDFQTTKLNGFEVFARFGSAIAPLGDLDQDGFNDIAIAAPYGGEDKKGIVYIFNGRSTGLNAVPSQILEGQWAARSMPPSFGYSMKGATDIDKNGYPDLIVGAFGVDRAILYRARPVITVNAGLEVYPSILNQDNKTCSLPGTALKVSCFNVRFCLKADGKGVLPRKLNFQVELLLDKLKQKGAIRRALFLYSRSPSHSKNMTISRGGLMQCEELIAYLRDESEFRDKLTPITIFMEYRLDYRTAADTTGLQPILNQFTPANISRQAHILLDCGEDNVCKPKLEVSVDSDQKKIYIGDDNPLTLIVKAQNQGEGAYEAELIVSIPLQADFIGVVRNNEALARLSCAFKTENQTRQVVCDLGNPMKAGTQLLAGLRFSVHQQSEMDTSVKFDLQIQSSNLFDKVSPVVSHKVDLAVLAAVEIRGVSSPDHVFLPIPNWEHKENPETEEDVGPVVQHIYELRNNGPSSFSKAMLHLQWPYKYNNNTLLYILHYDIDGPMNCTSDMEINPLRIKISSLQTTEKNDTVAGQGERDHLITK
T2 sequence (P06756 891-1048 limits assumed): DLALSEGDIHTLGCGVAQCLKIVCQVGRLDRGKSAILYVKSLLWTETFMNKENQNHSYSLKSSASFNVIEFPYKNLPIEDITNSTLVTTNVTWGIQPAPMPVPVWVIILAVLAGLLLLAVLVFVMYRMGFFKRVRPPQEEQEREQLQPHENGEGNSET
Integrin alpha-V/beta-5, sequence (P06756 31-889 limits assumed): as the sequence (P06756 31-889 limits assumed) above
Integrin alpha-V/beta-5, sequence (P06756 891-1048 limits assumed): as the sequence (P06756 891-1048 limits assumed) above
Integrin alpha-V/beta-5, sequence (P18084 24-799 limits assumed): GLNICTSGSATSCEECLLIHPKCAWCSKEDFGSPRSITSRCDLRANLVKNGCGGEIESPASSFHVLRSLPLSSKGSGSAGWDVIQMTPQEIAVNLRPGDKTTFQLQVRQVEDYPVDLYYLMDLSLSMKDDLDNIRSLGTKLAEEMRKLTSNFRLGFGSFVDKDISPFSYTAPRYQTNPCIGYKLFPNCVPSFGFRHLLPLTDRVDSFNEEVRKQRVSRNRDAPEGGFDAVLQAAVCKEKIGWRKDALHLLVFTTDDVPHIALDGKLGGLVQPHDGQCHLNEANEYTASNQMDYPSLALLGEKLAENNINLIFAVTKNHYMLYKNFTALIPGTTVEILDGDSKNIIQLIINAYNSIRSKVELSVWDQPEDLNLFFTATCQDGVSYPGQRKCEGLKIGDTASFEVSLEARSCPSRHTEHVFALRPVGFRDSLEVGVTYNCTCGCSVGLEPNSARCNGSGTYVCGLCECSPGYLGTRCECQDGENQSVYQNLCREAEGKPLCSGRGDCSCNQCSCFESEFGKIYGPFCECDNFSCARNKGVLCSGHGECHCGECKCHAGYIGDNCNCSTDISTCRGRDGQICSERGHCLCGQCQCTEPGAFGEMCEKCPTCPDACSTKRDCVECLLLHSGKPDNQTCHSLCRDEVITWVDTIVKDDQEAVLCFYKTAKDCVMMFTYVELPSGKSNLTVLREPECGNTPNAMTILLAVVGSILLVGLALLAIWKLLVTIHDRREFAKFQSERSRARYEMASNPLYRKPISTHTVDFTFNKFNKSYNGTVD
T1 sequence (P06756 31-889 limits assumed): as the sequence (P06756 31-889 limits assumed) above
T1 sequence (P06756 891-1048 limits assumed): as the sequence (P06756 891-1048 limits assumed) above
T1 sequence (P18564 22-788 limits assumed): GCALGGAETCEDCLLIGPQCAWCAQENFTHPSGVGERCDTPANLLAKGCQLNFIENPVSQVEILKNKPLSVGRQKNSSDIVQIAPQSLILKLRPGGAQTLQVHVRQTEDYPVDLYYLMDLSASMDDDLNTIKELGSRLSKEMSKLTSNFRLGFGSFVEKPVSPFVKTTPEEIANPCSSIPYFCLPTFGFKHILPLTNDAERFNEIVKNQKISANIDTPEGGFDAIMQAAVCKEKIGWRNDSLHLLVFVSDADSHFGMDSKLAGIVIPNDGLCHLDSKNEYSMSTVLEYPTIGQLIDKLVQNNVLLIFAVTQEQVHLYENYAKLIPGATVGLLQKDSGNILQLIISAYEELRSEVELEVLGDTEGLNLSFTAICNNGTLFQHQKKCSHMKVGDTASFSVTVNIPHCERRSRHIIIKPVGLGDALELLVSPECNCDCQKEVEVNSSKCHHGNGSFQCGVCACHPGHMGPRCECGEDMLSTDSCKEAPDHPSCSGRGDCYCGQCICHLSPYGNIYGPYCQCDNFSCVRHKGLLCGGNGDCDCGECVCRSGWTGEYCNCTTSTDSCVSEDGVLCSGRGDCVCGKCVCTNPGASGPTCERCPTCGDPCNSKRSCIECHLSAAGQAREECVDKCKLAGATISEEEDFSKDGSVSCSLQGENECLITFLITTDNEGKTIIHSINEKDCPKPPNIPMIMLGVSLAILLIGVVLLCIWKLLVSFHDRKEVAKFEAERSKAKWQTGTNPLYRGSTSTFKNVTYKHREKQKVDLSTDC
Integrin alpha-V/beta-8, sequence (P06756 31-889 limits assumed): as the sequence (P06756 31-889 limits assumed) above
Integrin alpha-V/beta-8, sequence (P06756 891-1048 limits assumed): as the sequence (P06756 891-1048 limits assumed) above
Integrin alpha-V/beta-8, sequence (P26012 43-769 limits assumed): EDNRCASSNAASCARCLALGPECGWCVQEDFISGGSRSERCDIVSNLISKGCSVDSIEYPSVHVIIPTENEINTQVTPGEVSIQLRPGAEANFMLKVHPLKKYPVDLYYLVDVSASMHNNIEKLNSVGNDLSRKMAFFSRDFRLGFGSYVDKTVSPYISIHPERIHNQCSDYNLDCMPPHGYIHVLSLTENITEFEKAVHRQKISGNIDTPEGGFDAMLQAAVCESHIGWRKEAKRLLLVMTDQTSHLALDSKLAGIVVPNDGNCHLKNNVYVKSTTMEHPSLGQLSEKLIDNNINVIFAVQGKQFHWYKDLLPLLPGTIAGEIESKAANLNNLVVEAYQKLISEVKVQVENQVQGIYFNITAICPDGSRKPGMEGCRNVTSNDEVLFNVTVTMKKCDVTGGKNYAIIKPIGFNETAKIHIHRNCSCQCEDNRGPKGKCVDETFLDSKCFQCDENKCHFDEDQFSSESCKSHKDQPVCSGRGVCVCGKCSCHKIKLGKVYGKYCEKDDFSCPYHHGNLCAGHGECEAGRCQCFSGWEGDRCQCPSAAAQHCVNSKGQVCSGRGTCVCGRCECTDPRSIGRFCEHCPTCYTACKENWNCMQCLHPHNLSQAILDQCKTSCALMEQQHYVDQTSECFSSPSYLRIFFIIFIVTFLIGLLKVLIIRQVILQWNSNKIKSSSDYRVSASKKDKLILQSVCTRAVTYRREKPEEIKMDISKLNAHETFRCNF

| Structure (SMILES) | Ratio IC50 (K562 [1]) | IC50 (Integrin alpha-V/beta-8) [nM] | Ratio IC50 (K562 [2]) | IC50 (Integrin alpha-V/beta-6 [3]) [nM] | Ratio IC50 (K562 [4]) | IC50 (Integrin alpha-V/beta-3 [5]) [nM] | Ratio IC50 (K562 [6]) | IC50 (Integrin alpha-V/beta-5) [nM] | chromatographic logD [7] | IC50 (Integrin alpha-V/beta-3 [8]) [nM] | logD [7] | IC50 (Integrin alpha-V/beta-6 [9]) [nM] |
| --- | --- | --- | --- | --- | --- | --- | --- | --- | --- | --- | --- | --- |
| O=C(O)CC(NC(=O)CCCCc1ccc2c(n1)NCCC2)c1ccccc1 (racemic) | 10 | 794 | 10 | 2000 | 10 | 100 | 10 | 79.4 | 1.56 | – | – | – |
| O=C(O)CC(NC(=O)CCCCc1ccc2c(n1)NCCC2)c1ccccc1F (racemic) | – | 3980 | – | 1000 | – | 316 | – | 100 | 1.88 | – | – | – |
| O=C(O)CC(NC(=O)CCCCc1ccc2c(n1)NCCC2)c1ccc2c(c1)CCC2 (racemic) | – | 398 | – | 158 | – | 126 | – | 79.4 | 2.52 | – | – | – |
| O=C(O)CC(NC(=O)CCCCc1ccc2c(n1)NCCC2)c1ccc(Cl)c(C(F)(F)F)c1 (racemic) | – | 251 | – | 100 | – | 316 | – | 126 | 3.1 | – | – | – |
| COc1ccc(C(CC(=O)O)NC(=O)CCCCc2ccc3c(n2)NCCC3)cc1OC (racemic) | – | 398 | – | 316 | – | 100 | – | 63.1 | 1.37 | – | – | – |
| O=C(O)CC(NC(=O)CCCCc1ccc2c(n1)NCCC2)c1ccc(C(F)(F)F)cc1 (racemic) | – | 794 | – | 631 | – | 251 | – | 316 | 2.72 | – | – | – |
| N#Cc1cccc(C(CC(=O)O)NC(=O)CCCCc2ccc3c(n2)NCCC3)c1 (racemic) | – | 1000 | – | 251 | – | 200 | – | 39.8 | 1.67 | – | – | – |
| Cc1ccccc1C(CC(=O)O)NC(=O)CCCCc1ccc2c(n1)NCCC2 (racemic) | – | 1260 | – | 398 | – | 50.1 | – | 20 | 1.85 | – | – | – |
| O=C(O)CC(NC(=O)CCCCc1ccc2c(n1)NCCC2)c1cccc(OC(F)(F)F)c1 (racemic) | – | 251 | – | 200 | – | 398 | – | 79.4 | 3.11 | – | – | – |
| O=C(O)CC(NC(=O)CCCCc1ccc2c(n1)NCCC2)c1cccc(F)c1 (racemic) | 10 | 1580 | 10 | 794 | 10 | 31.6 | 10 | 15.8 | 1.92 | 23 | – | – |
| CS(=O)(=O)c1ccc(C(CC(=O)O)NC(=O)CCCCc2ccc3c(n2)NCCC3)cc1 (racemic) | – | 794 | – | 631 | – | 126 | – | 398 | 1.08 | – | – | – |
| O=C(O)CC(NC(=O)CCCCc1ccc2c(n1)NCCC2)c1ccc(Cl)c(C(F)(F)F)c1 (single isomer, unassigned; enantiomer 2) | – | > 10000 | – | > 10000 | – | 1580 | – | 631 | – | – | 3.25 | – |
| Cc1ccc(C(CC(=O)O)NC(=O)CCCCc2ccc3c(n2)NCCC3)cc1C (racemic) | – | 501 | – | 200 | – | 63.1 | – | 63.1 | 2.29 | – | – | – |
| N=C(N)Nc1cccc(C(=O)NCC(=O)NC(CC(=O)O)c2cc(Cl)cc(Cl)c2)c1 (stereo not given) | – | – | – | 158 | – | – | – | – | – | – | – | – |
| O=C(O)C[C@H](NC(=O)CCCCc1ccc2c(n1)NCCC2)c1cccc(C(F)(F)F)c1 | – | 126 | – | 79.4 | – | 100 | – | 63.1 | 2.72 | – | – | – |
| O=C(O)C[C@H](NC(=O)C(COCc1ccccc1)NC(=O)CCCCNc1ccccn1)c1cc(Cl)cc(Cl)c1 (stereo not given in full) | – | – | – | 1000 | – | – | – | – | – | – | – | 200 |
| O=C(O)CC(NC(=O)CCCCc1ccc2c(n1)NCCC2)c1ccccc1Cl (racemic) | – | > 10000 | – | > 10000 | – | 2000 | – | 1580 | 1.92 | – | – | – |
| O=C(O)CC(NC(=O)CCCCc1ccc2c(n1)NCCC2)c1cccc(Cl)c1Cl (racemic) | – | 10000 | – | 7940 | – | 3980 | – | 501 | 2.73 | – | – | – |
| Cc1cccc(C(CC(=O)O)NC(=O)CCCCc2ccc3c(n2)NCCC3)c1 (racemic) | – | 631 | – | 398 | – | 158 | – | 50.1 | 1.95 | – | – | – |

| Structure (SMILES) | Ratio IC50 (K562 [1]) | IC50 (Integrin alpha-V/beta-8) [nM] | Ratio IC50 (K562 [2]) | IC50 (Integrin alpha-V/beta-6 [3]) [nM] | Ratio IC50 (K562 [4]) | IC50 (Integrin alpha-V/beta-3 [5]) [nM] | Ratio IC50 (K562 [6]) | IC50 (Integrin alpha-V/beta-5) [nM] | chromatographic logD [7] | IC50 (Integrin alpha-V/beta-3 [8]) [nM] | logD [7] | IC50 (Integrin alpha-V/beta-6 [9]) [nM] |
| --- | --- | --- | --- | --- | --- | --- | --- | --- | --- | --- | --- | --- |
| O=C(O)CC(NC(=O)CCCCc1ccc2c(n1)NCCC2)c1ccc2c(c1)OCO2 (racemic) | – | 794 | – | 251 | – | 15.8 | – | 12.6 | 1.47 | – | – | – |
| O=C(O)CC(NC(=O)CCCCc1ccc2c(n1)NCCC2)c1ccc(-c2ccccc2)cc1 (racemic) | – | 316 | – | 398 | – | 100 | – | 631 | 3.1 | – | – | – |
| O=C(O)CC(NC(=O)CCCCc1ccc2c(n1)NCCC2)c1ccc(Cl)c(C(F)(F)F)c1 (single isomer, unassigned; enantiomer 1) | – | 126 | – | 63.1 | – | 158 | – | 63.1 | – | – | 3.28 | – |
| O=C(O)CC(NC(=O)CCCCc1ccc2c(n1)NCCC2)c1ccc(Cl)cc1 (racemic) | – | 631 | – | 398 | – | 126 | – | 126 | 2.14 | – | – | – |
| O=C(O)CC(NC(=O)CCCCc1ccc2c(n1)NCCC2)c1cc(Cl)cc(Cl)c1 (racemic) | – | 251 | – | 251 | – | 398 | – | 200 | 2.93 | – | – | – |
| O=C(O)CC(NC(=O)CCCCc1ccc2c(n1)NCCC2)c1ccc(Cl)c(Cl)c1 (racemic) | – | 200 | – | 200 | – | 50.1 | – | 100 | 2.62 | – | – | – |
| COc1ccc(C(CC(=O)O)NC(=O)CCCCc2ccc3c(n2)NCCC3)cc1 (racemic) | 10 | 501 | 10 | 501 | 10 | 25.1 | 10 | 50.1 | 1.64 | – | – | – |
| O=C(O)CC(NC(=O)CCCCc1ccc2c(n1)NCCC2)c1cccc(C(F)(F)F)c1 (racemic) | – | 158 | – | 100 | – | 200 | – | 39.8 | 2.73 | – | – | – |
| COc1cccc(C(CC(=O)O)NC(=O)CCCCc2ccc3c(n2)NCCC3)c1 (racemic) | 10 | 501 | 10 | 316 | 10 | 39.8 | 10 | 63.1 | 1.66 | – | – | – |
| Cc1cc(C)cc(C(CC(=O)O)NC(=O)CCCCc2ccc3c(n2)NCCC3)c1 (racemic) | – | 631 | – | 501 | – | 398 | – | 398 | 2.43 | – | – | – |
| N#Cc1ccc(C(CC(=O)O)NC(=O)CCCCc2ccc3c(n2)NCCC3)cc1 (racemic) | – | 794 | – | 398 | – | 79.4 | – | 398 | 1.47 | – | – | – |
| Cc1ccc(C(CC(=O)O)NC(=O)CCCCc2ccc3c(n2)NCCC3)cc1 (racemic) | – | 1000 | – | 794 | – | 39.8 | – | 100 | 1.97 | – | – | – |
| COc1ccccc1C(CC(=O)O)NC(=O)CCCCc1ccc2c(n1)NCCC2 (racemic) | – | > 10000 | – | > 10000 | – | 501 | – | 501 | 1.83 | – | – | – |
| O=C(O)C[C@@H](NC(=O)CCCCc1ccc2c(n1)NCCC2)c1cccc(C(F)(F)F)c1 | – | > 10000 | – | 6310 | – | > 10000 | – | 2000 | 2.61 | – | – | – |
| O=C(O)CC(NC(=O)CCCCc1ccc2c(n1)NCCC2)c1cc(Cl)cc(Cl)c1 (single isomer, unassigned; enantiomer 2) | – | 100 | – | 158 | – | 126 | – | 251 | – | – | 2.8 | – |
| O=C(O)CC(NC(=O)CCCCc1ccc2c(n1)NCCC2)c1cccc(Cl)c1 (racemic) | – | 501 | – | 251 | – | 79.4 | – | 25.1 | 2.3 | – | – | – |
| O=C(O)CC(NC(=O)CCCCc1ccc2c(n1)NCCC2)c1ccc(F)cc1 (racemic) | – | 501 | – | 501 | – | 100 | – | 63.1 | 1.75 | – | – | – |
| O=C(O)CC(NC(=O)CCCCc1ccc2c(n1)NCCC2)c1cc(Cl)cc(Cl)c1 (stereo in doubt; 37E1) | – | > 10000 | – | 6310 | – | > 10000 | – | 1000 | – | – | 2.97 | – |
| O=C(O)CC(NC(=O)CCCCc1ccc2c(n1)NCCC2)c1ccc(OC(F)(F)F)cc1 (racemic) | – | 794 | – | 631 | – | 158 | – | 501 | 2.85 | – | – | – |
